Experimental data reported in patent US6022880A, “Substituted pyridylamino indoles” (Hoechst Marion Roussel, Inc., priority 1997, dated 2000).
Read-outs that look alike come from different tables or passages of the source.

Key:
[1] = molecular target: T1, 5HT1A receptor (Rattus norvegicus, UniProt P19327); assay: [3H]DPAT Binding to Serotonin Receptors of 5HT1A Type; design: species or system rat (male Wistar, hippocampus); conditions: [3H]DPAT 0.5 nM, rat hippocampal membranes
T1 construct: Hippocampi are removed, weighed and homogenized in 20 volumes of 0.05 M Tris buffer; from tissue; host or cells: rat hippocampus membranes (male Wistar)
T1 sequence (P19327 1-422): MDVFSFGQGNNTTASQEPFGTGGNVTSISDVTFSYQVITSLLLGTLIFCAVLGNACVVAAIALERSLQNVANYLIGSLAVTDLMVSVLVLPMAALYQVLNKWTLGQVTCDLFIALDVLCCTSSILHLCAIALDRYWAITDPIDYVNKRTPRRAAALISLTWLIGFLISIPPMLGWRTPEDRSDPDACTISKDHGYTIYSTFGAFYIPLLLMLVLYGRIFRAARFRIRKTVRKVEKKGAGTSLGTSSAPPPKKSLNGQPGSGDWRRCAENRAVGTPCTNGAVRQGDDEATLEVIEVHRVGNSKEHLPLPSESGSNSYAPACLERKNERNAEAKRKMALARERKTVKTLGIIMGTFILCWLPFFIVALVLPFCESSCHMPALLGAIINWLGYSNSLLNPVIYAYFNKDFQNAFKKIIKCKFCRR
Protocol: The purpose of this assay is to determine the affinity of test compounds for the 5HT1A receptor in the brain.
Serotonin creatinine sulfate. 0.5 mM stock solution is made up in 0.01 N HCl and 20 μl added to 3 tubes for determination of nonspecific binding (final concentration=10 μM).
Test Compounds. For most assays, a 1 mM stock solution is made up in a suitable solvent and serially diluted, such that the final concentration in the assay ranges from 2×10^-5 to 2×10^-8 M. Seven concentrations are used for each assay.
Male Wistar rats are sacrificed by decapitation. Hippocampi are removed, weighed and homogenized in 20 volumes of 0.05 M Tris buffer, pH 7.7. The homogenate is centrifuged at 48,000 g for 10 minutes and the supernatant is discarded. […]
Tubes are incubated for 15 minutes at 25° C. […] The filters are then placed into scintillation vials with 10 ml of Liquiscint scintillation cocktail and counted.
Specific binding is defined as the difference between total binding and binding in the presence of 10 μM 5HT. IC50 values are calculated from the percent specific binding at each drug concentration. […]
Tubes are incubated for 15 minutes at 25° C. […] The filters are then placed into scintilltion vials with 10 ml of Liquiscint scintillation cocktail and counted. […] IC50 values are calculated from the percent specific binding at each drug concentration.

[2] = molecular target: T2, 5HT3 receptor (Rattus norvegicus, UniProt P35563); assay: biochemical; type: binding, rat (male Wistar, entorhinal cortex)
T2 sequence (P35563 24-483): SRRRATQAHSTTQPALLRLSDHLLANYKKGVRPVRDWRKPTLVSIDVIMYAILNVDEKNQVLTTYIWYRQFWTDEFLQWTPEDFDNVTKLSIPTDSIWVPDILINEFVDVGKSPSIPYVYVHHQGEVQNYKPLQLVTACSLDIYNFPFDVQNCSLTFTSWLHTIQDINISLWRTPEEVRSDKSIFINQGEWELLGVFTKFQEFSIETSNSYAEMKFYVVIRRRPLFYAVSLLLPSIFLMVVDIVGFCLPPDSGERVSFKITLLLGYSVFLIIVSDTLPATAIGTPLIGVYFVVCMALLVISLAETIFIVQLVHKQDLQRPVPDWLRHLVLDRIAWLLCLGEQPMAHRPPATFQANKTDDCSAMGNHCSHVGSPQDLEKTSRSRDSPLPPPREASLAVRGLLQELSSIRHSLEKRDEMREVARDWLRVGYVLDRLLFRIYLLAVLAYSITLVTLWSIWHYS
Protocol: The homogenate is centrifuged at 48,000 g for 15 minutes at 4° C.
The filters are dried and counted in 10 ml of liquid scintillation cocktail.

[3] = system: serotonin uptake, rat whole brain synaptosomes; assay: Inhibition of [3H]-Serotonin Uptake in Rat Whole Brain Synaptosomes; type: biochemical, rat (male Wistar); conditions: [3H]-5HT 50 nM, read-out: C: Inhibition of serotonin uptake, IC50
Protocol: (C) Inhibition of [^3 H]-Serotonin Uptake in Rat Whole Brain Synaptosomes
(§1) A. Animals: Male CR Wistar Rats (100-125 g).
The final desired concentration of ^3 H-5HT in the assay is 50 nM. The dilution factor is 0.8.
5. For most assays, a 1 mM solution of the test compound is made up in suitable solvent and serially diluted such that the final concentration in the assay ranges from 2×10^-8 to 2×10^-5 M. Seven concentrations are used for each assay.
(§2) Male Wistar rats are decapitated and the brain rapidly removed. Whole brain minus cerebella is weighed and homogenized in 9 volumes of ice-cold 0.32 M sucrose using a Potter-Elvejhem homogenizer. Homogenization should be done with 4-5 up and down strokes at medium speeds to minimize synaptosome lysis. The homogenate is centrifuged at 1000 g for 10 min. at 0-4° C. The supernatant (S1) is decanted and is used for uptake experiments.
(§3) Tubes are incubated at 37° C. under a 95% O2 /5% CO2 atmosphere for 5 minutes. For each assay, 3 tubes are incubated with 20 μl of vehicle at 0° C. in an ice bath. After incubation all tubes are immediately centrifuged at 4000 g for 10 minutes. The supernatant fluid is aspirated and the pellets dissolved by adding 1 ml of solubilizer (Tritor. X-100+50% EtOH, 1:4 v/v). The tubes are vigorously vortexed, decanted into scintillation vials, and counted in 10 ml of Liquiscint scintillation counting cocktail. Active uptake is the difference between cpm at 37° C. and 0° C. The percent inhibition at each drug concentration is the mean of three determinations. IC50 values are derived from log-probit analysis.

[4] = system: norepinephrine uptake, rat whole brain or hypothalamic synaptosomes; assay: Inhibition of [3H]-Norepinephrine Uptake in Rat Whole Brain or Hypothalamic Synaptosomes; type: biochemical, rat (male Wistar); conditions: [3H]-NE 50 nM, read-out: E: Inhibition of norepinephrine uptake, IC50
Protocol: (E) Inhibition of [^3 H]-Norepinephrine Uptake in Rat Whole Brain or Hypothalamic Synaptosomes
This assay is used as a biochemical screen for potential antidepressants which block norepinephrine uptake.
A. Animals: Male CR Wistar rats (100-125 g).
The final desired concentration of [^3 H]-NE in the assay is 50 nM. The dilution factor is 0.8.
(§4) 5. For most assays, a 1 mM stock solution of the test compound is made up in a suitable solvent and serially diluted such that the final concentration in the assay ranges from 2×10^-8 to 2×10^-5 M. Seven concentrations are used for each assay.
as §2, with “Either whole” for “Whole”, “cerebella or hypothalamus” for “cerebella”
as §3, with “(Triton” for “(Tritor.”

[5] = system: rats (schedule-induced polydipsia); assay: Schedule-Induced Polydipsia in Rats; type: in vivo, rat (male Wistar); conditions: i.p., daily; rats tested once a week
Excerpt: Schedule-Induced Polydipsia in Rats
Food deprived rates exposed to a fixed-interval feeding schedule and allowed free access to water develop an excessive drinking behavior known as polydipsia. This schedule-induced polydipsia (SIP) cannot be explained in terms of a physiological deficit due to water deprivation. Furthermore,it offers no benefit or reward to the rat (1). Just as SIP involves the exaggeration of the normal drinking behavior, the compulsive symptoms of obsessive-compulsive disorder (OCD) can be considered an exaggeration of normal human behaviors.
Male Wistar rats (Charles River) weighing 180-220 grams were individually housed and maintained in accordance with the "NIH Guide to Care and Use of Laboratory Animals" (National Institute of Health Care Publications, No. 85-23, revised 1985) with a 12 hour light; 12 hour dark cycle and allowed free access to water. The rats were placed on a restricted diet which maintained 80% of their free feeding body weight. To induce polydipsia, rats were placed in operant chambers housed in sound attenuated boxes where a pellet dispenser automatically dispensed two 45 mg (Noyes) pellets on a fixed-interval 60 second (FI-60 sec.) schedule over a 150 minute test session. Water was available at all times in the operant chambers. After four weeks (Monday through Friday) of exposure to the FI-60 sec. feeding schedule, approximately 80% of the rats met a pre-determined criterion for water consumption (greater than 60 mls of water per session) and were considered polydipsic. Rats (N=8) were administered, intraperitoneally (IP), vehicle or the appropriate compound daily. Once dosing commenced, the rats were tested in the operant chambers once a week to assess SIP.
Compounds were either dissolved or suspended in distilled water plus a drop of Tween 80 and injected IP in a dosage volume of 1 ml/kg. The final volume was prepared to account for salt content and the dosage was expressed as 100% base.

[6] = system: dopamine uptake, rat striatal synaptosomes; assay: Inhibition of 3H-Dopamine Uptake in Rat Striatal Synaptosomes; type: biochemical, rat (male Wistar); conditions: 3H-DA 50 nM, read-out: D: Inhibition of dopamine uptake, IC50
Protocol: (D) Inhibition of ^3 H-Dopamine Uptake in Rat Striatal Synaptosomes
This assay is used to show differential drug effects on dopamine uptake versus norepinephrine uptake and to identify therapeutic agents for diseases where the potentiation of dopaminergic activity may be helpful (e.g. Parkinson's Disease).
as §1
The final desired concentration of ^3 H-DA in the assay is 50 nM. The dilution factor is 0.9. Therefore, the KHBB is made up to contain 55.5 nM [^3 H]-5DA.
as §4, with “assay. Higher or lower concentrations may be used depending on the potency of the compound.” for “assay.”
as §2, with “Corpora striata are rapidly removed,” for “Whole brain minus cerebella is”
as §3, with “(Triton” for “(Tritor.”

[7] = system: norepinephrine uptake (active transport system); conditions: high-affinity, sodium dependent active transport system; literature; read-out: Km (NE uptake); cited from earlier work
[8] = [3H]-GR65630 0.4 nM, rat entorhinal cortex, read-out: B: 5HT3 receptor binding, IC50

c1ccc2c(Nc3ccncc3)c[nH]c2c1 [3-(4-pyridinylamino)-1H-indole]
IC50 [1]: 6.4 µM
IC50 [2, 8]: 5.5 µM
IC50 [3]: 14.5 µM
IC50 [4]: 1000 nM

CC(C)CN(c1ccncc1)c1csc2cc(C(F)(F)F)ccc12.Cl [3-[(2-Methylpropyl)(4-pyridinylamino)]-6-trifluoromethylbenzo[b]thiophene hydrochloride]
inhibition of SIP (schedule-induced polydipsia), active dose [5]: Active at 15

CC(C)CN(c1ccncc1)c1csc2cc(Cl)ccc12.Cl [6-Chloro3-[(2-methylpropyl)(4-pyridinyl)amino]benzo[b]thiophen hydrochloride]
inhibition of SIP (schedule-induced polydipsia), active dose [5]: Active at 15

CCCN(c1ccncc1)c1csc2cc(Cl)ccc12.Cl [6-Chloro-3-(propyl-4-pyridinylamino)benzo[b]thiophene hydrochloride]
IC50 [2, 8]: 2.6 µM
IC50 [3]: 0.06 µM
IC50 [6]: 560 nM
IC50 [4]: 210 nM
inhibition of SIP (schedule-induced polydipsia), active dose [5]: Active at 30 and 15

CN(C)CCCN1c2ccccc2CCc2ccc(Cl)cc21 [Clomipramine, reference compound]
inhibition of SIP (schedule-induced polydipsia), active dose [5]: Active at 5

CNCCC(Oc1ccc(C(F)(F)F)cc1)c1ccccc1 (stereo not drawn) [Fluoxetine, reference compound]
inhibition of SIP (schedule-induced polydipsia), active dose [5]: Active at 5

CN1[C@@H]2CC[C@H]1C[C@@H](OC(=O)c1cc(Cl)cc(Cl)c1)C2 [MDL 72222, reference compound]
IC50 [2]: 0.53 µM

NC[C@H](O)c1ccc(O)c(O)c1 [norepinephrine]
Km [7]: 0.1 to 1 µM
